Source: US10106540B2, “HDAC6 inhibitors and their uses” (Universität Regensburg, priority 2014, dated 2018)

Test system: nuclear proteins
Experiment: Nuclear extracts versus cytoplasm after MARB1 stimulation, Western blot
Type: cell-based
Experimental: Nuclear extracts were generated and compared to the cytoplasm by western blotting. 6 Mio cells were seeded on a 10 cm dish and incubated 2 h in the medium for adaption. SAHA and […] are pan-HDACi. HSP90 was used as a loading control for the cytoplasm. n=2
SDS-PAGE and Western Blot Analysis Method b
Western Blot analysis method b was used for the blots illustrated in FIGS. 6 to 9 and 11: Equal amounts of proteins were separated with a sodium dodecyl sulfate-polyacrylamide gel electrophoresis (SDS-PAGE) using an electrophoresis buffer by Laemmli with 1% SDS. The proteins were transferred to a nitrocellulose membrane by western blotting using a wet blot chamber. The blots were incubated with the primary antibody, after blocking the membrane for 1 h in 5% non-fat dry milk in tris-buffered saline (TBS) containing 0.05% Tween-20. Fluorescence coupled secondary antibodies (LI-COR) were used and the signal was measured on the Odyssey to detect the proteins.
The cells for nuclear extracts were harvested on ice after stimulation and washed with cold PBS. The pellet was resuspended in lysis buffer A (10 mM HEPES pH 7.9, 1.5 mM MgCl2, 10 mM KCl, 1 mM DTT and protease and phosphatase inhibitor) and incubated for 15 min on ice followed by addition of NP-40 to a final concentration of 1%. […] The protein level was assessed by Bradford assay (Goder et al. 2015).

With `CN1C(=O)C2CN(Cc3c2c2ccccc2n3Cc2ccc(C(=O)NO)cc2)C1=O` (stereo not shown) [MARB1, N-Hydroxy-4-((4-methyl-3,5-dioxo-3,4,5,6-tetrahydro-2,6-methano[1,3]diazocino[5,6-b]indol-11(1H)-yl)methyl)benzamide] the “effects on nuclear proteins” value was “no detectable effects”.
